The source of these data is patent US20060079566A1, “PDK-1/Akt signaling inhibitors” (priority 2003, published 2006).

Holding throughout (assay type): cell-based
The subject of one experiment is 786-0. The experiment in a line: NCI DTP screen (SRB), Renal Cancer. The conditions noted are these: Homo sapiens. As to the method: (§1) Screening of compounds 70 and 71 against several cancer cell lines The human tumor cell lines of the cancer screening panel are grown in RPMI 1640 medium containing 5% fetal bovine serum and 2 mM L-glutamine. For a typical screening experiment, cells are inoculated into 96 well microtiter plates in 100 μL at plating densities ranging from 5,000 to 40,000 cells/well depending on the doubling time of individual cell lines. After cell inoculation, the microtiter plates are incubated at 37° C., 5% CO2, 95% air and 100% relative humidity for 24 h prior to addition of experimental drugs.
(§2) After 24 h, two plates of each cell line are fixed in situ with TCA, to represent a measurement of the cell population for each cell line at the time of drug addition (Tz). Experimental drugs are solubilized in dimethyl sulfoxide at 400-fold the desired final maximum test concentration and stored frozen prior to use. At the time of drug addition, an aliquot of frozen concentrate is thawed and diluted to twice the desired final maximum test concentration with complete medium containing 50 μg/ml gentamicin. Additional four, 10-fold or ½ log serial dilutions are made to provide a total of five drug concentrations plus control. Aliquots of 100 μl of these different drug dilutions are added to the appropriate microtiter wells already containing 100 μl of medium, resulting in the required final drug concentrations.
(§3) Following drug addition, the plates are incubated for an additional 48 h at 37° C., 5% CO2, 95% air, and 100% relative humidity. For adherent cells, the assay is terminated by the addition of cold TCA. Cells are fixed in situ by the gentle addition of 50 μl of cold 50% (w/v) TCA (final concentration, 10% TCA) and incubated for 60 minutes at 4° C. The supernatant is discarded, and the plates are washed five times with tap water and air dried. Sulforhodamine B (SRB) solution (100 μl) at 0.4% (w/v) in 1% acetic acid is added to each well, and plates are incubated for 10 minutes at room temperature. After staining, unbound dye is removed by washing five times with 1% acetic acid and the plates are air dried. Bound stain is subsequently solubilized with 10 mM trizma base, and the absorbance is read on an automated plate reader at a wavelength of 515 nm. For suspension cells, the methodology is the same except that the assay is terminated by fixing settled cells at the bottom of the wells by gently adding 50 μl of 80% TCA (final concentration, 16% TCA). Using the seven absorbance measurements [time zero, (Tz), control growth, (C), and test growth in the presence of drug at the five concentration levels (Ti)], the percentage growth is calculated at each of the drug concentrations levels. Percentage growth inhibition is calculated as: [(Ti−Tz)/(C−Tz)]×100 for concentrations for which Ti>/=Tz [(Ti−Tz)/Tz]×100 for concentrations for which Ti<Tz
(§4) Three dose response parameters are calculated for each experimental agent. […] The drug concentration resulting in total growth inhibition (TGI) is calculated from Ti=Tz. […] Values are calculated for each of these three parameters if the level of activity is reached; however, if the effect is not reached or is exceeded, the value for that parameter is expressed as greater or less than the maximum or minimum concentration tested.

The test system of the next experiment is CAKI-1. Nature of the experiment: NCI DTP screen (SRB), Renal Cancer. The conditions noted are these: Homo sapiens. As to the method:
as §1, §2, §3, §4

In a further experiment the test system is A498. Nature of the experiment: NCI DTP screen (SRB), Renal Cancer. The conditions noted are these: Homo sapiens. As to the method: as §1, §2, §3, §4
In the next experiment the test system is SF-295. Nature of the experiment: NCI DTP screen (SRB), CNS Cancer. The conditions noted are these: Homo sapiens. As to the method: as §1, §2, §3, §4
The next experiment deals with SF-268. Nature of the experiment: NCI DTP screen (SRB), CNS Cancer. As to the method:
as §1, §2, §3, §4

A further experiment concerns SNB-19. Nature of the experiment: NCI DTP screen (SRB), CNS Cancer. The conditions noted are these: Homo sapiens. Here is the method: as §1, §2, §3, §4

Broadly, the GI50 is the concentration at which growth is held to half of that of the control. A higher GI50 goes with lower sensitivity of the cells. For the molecule `NCC(=O)Nc1ccc(-n2nc(C(F)(F)F)cc2-c2ccc3c(ccc4ccccc43)c2)cc1` [Compound 70, 2-Amino-N-{4-[5-(2-phenanthrenyl)-3-(trifluoromethyl)-1H-pyrazol-1-yl]-phenyl}-acetamide], the GI50 worked out at 1.2 µM with 786-0 (786-0); 0.703 µM in the experiment on CAKI-1; 2.3 µM in the experiment on A498 (A498); 1.28 µM in the experiment with SF-295 (SF-295); 1.11 µM with SF-268 (Homo sapiens, SF-268); 1.18 µM in the experiment with SNB-19. The CC50 was 6.79 µM with 786-0 (786-0, read-out: LC50); 66.9 µM in the experiment with A498 (A498, read-out: LC50); greater than 100 µM with SF-295 (SF-295, read-out: LC50); greater than 100 µM in the experiment on SF-268 (Homo sapiens, SF-268, read-out: LC50). Further, in the experiment on SF-268 (SF-268, Log10 Concentration −4.0), the “Percent Growth” value is −26%.
